Measurements from patent publication US20230233569A1 (Revolution Medicines, Inc., priority 2020, published 2023).
Where two headings read alike, the source gives them in different places.

Legend:
Capan-1 (K-Ras G12V) = assay: CellTiter-Glo cell viability assay, 5-day treatment; type: cell-based; conditions: Homo sapiens, CAPAN-1, 120 h, 5-day treatment; read-out: Capan-1 Cell Viability assay data (K-Ras G12V, IC50)
How it was run: (§1)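 Seeded cells received test compound by direct dispensing. On day 5 the plates sat at room temperature approximately 30 minutes, then luminescence was measured. Data were normalized to DMSO and curve-fitted with four parameters.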

NCI-H358 (K-Ras G12C) = assay: as above; type: cell-based; conditions: Homo sapiens, NCI-H358, 120 h, 5-day treatment; read-out: H358 Cell Viability assay data (K-Ras G12C, IC50)
How it was run: as §1

KRAS G12C = KRAS G12C (Homo sapiens, UniProt P01116+P62937, G12C); assay: Disruption of BRAF RBD interaction with Ras (FRET / MOA assay, with Cyclophilin A); type: biochemical
How it was run: (§2)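 Biochemical TR-FRET disruption assay: nucleotide-loaded K-Ras with Cyclophilin A and a BRAF RBD construct, compound titrated over 10 points from 30 μM (final).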

KRAS G12D = KRAS G12D (Homo sapiens, UniProt P01116+P62937, G12D); assay: as above; type: biochemical
How it was run: as §2

KRAS G12S = KRAS G12S (Homo sapiens, UniProt P01116+P62937, G12S); assay: as above; type: biochemical
How it was run: as §2

KRAS G12V = KRAS G12V (Homo sapiens, UniProt P01116+P62937, G12V); assay: as above; type: biochemical
How it was run: as §2

KRAS G13C = KRAS G13C (Homo sapiens, UniProt P01116+P62937, G13C); assay: as above; type: biochemical
How it was run: as §2

KRAS G13D = KRAS G13D (Homo sapiens, UniProt P01116+P62937, G13D); assay: as above; type: biochemical
How it was run: as §2

KRAS WT = KRAS WT (Homo sapiens, UniProt P01116+P62937); assay: as above; type: biochemical
How it was run: as §2

NRAS G12C = NRAS G12C (Homo sapiens, UniProt P01111+P62937, G12C); assay: as above; type: biochemical
[1] = read-out: KRAS G12C FRET data, IC50
[2] = read-out: KRAS G12D FRET data, IC50
[3] = read-out: KRAS G12S FRET data, IC50
[4] = KRAS G12V, read-out: KRAS G12V FRET data IC50
[5] = read-out: KRAS G13C FRET data, IC50
[6] = KRAS G13D, read-out: KRAS G13D FRET data IC50
[7] = KRAS WT, read-out: KRAS WT FRET data IC50
[8] = NRAS G12C, read-out: NRAS G12C FRET data IC50
[9] = KRAS G12V FRET data IC50, KRAS G12V
[10] = KRAS G13D FRET data IC50, KRAS G13D
[11] = KRAS WT FRET data IC50, KRAS WT
[12] = NRAS G12C FRET data IC50, NRAS G12C

Chain of KRAS G12V (P01116 1-169 isoform P01116-2 G12V limits assumed): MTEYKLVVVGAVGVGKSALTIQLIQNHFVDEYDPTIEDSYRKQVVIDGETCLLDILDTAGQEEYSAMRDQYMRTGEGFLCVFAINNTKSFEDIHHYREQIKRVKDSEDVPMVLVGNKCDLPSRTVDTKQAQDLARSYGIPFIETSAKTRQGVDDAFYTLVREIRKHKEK
Chain of KRAS G12V (P62937 whole entry): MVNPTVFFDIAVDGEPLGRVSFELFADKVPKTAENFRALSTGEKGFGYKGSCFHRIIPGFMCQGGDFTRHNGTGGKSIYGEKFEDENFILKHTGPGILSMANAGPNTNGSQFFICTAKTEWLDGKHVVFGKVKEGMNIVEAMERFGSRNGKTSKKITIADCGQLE
Chain of KRAS WT (P01116 1-169 isoform P01116-2 limits assumed): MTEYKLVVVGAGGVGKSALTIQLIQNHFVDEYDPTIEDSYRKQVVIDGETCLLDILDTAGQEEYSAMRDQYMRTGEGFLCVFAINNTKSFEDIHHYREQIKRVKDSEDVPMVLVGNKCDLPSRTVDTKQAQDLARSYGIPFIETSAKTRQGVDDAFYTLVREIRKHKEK
Chain of KRAS WT (P62937 whole entry): as the sequence (P62937 whole entry) above
Chain of KRAS G12S (P01116 1-169 isoform P01116-2 G12S limits assumed): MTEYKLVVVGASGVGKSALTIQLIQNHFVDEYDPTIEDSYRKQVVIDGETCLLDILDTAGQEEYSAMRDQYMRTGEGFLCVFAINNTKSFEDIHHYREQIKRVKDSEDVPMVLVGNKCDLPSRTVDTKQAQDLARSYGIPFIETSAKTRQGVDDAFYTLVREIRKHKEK
Chain of KRAS G12S (P62937 whole entry): as the sequence (P62937 whole entry) above
Chain of KRAS G13D (P01116 1-169 isoform P01116-2 G13D limits assumed): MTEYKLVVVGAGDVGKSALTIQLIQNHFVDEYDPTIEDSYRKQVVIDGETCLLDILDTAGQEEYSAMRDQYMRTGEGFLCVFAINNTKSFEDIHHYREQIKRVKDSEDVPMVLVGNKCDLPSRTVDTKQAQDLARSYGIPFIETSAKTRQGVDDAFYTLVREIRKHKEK
Chain of KRAS G13D (P62937 whole entry): as the sequence (P62937 whole entry) above
Chain of KRAS G12D (P01116 1-169 isoform P01116-2 G12D limits assumed): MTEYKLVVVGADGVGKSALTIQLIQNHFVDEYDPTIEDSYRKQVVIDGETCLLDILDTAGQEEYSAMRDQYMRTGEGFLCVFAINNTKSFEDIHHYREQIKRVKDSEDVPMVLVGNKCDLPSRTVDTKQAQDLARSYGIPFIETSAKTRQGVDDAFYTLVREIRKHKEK
Chain of KRAS G12D (P62937 whole entry): as the sequence (P62937 whole entry) above
Chain of KRAS G12C (P01116 1-169 isoform P01116-2 G12C): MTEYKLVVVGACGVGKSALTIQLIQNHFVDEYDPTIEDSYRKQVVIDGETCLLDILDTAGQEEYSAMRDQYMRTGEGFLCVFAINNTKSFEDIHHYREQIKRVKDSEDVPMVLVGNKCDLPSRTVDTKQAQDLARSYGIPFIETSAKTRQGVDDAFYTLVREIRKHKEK
Chain of KRAS G12C (P62937 whole entry): as the sequence (P62937 whole entry) above
Chain of NRAS G12C (P01111 whole entry G12C): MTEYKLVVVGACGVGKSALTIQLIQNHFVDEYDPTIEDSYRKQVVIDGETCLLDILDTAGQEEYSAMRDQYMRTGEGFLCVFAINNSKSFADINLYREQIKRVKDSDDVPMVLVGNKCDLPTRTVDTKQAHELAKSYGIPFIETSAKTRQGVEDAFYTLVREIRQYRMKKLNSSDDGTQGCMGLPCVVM
Chain of NRAS G12C (P62937 whole entry): as the sequence (P62937 whole entry) above
Chain of KRAS G13C (P01116 1-169 isoform P01116-2 G13C): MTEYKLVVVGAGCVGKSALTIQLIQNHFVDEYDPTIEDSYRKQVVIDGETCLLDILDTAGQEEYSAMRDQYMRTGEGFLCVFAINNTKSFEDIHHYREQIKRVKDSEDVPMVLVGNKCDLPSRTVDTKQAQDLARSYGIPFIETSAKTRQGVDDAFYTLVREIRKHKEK
Chain of KRAS G13C (P62937 whole entry): as the sequence (P62937 whole entry) above

Row | SMILES | IC50 (Capan-1 (K-Ras G12V)) | IC50 (NCI-H358 (K-Ras G12C)) | IC50 (KRAS G12C; [1]) | IC50 (KRAS G12D; [2]) | IC50 (KRAS G12S; [3]) | IC50 (KRAS G12V; [4]) | IC50 (KRAS G13C; [5]) | IC50 (KRAS G13D; [6]) | IC50 (KRAS WT; [7]) | IC50 (NRAS G12C; [8]) | IC50 (KRAS G12C; KRAS G12C FRET data, IC50) | IC50 (KRAS G12D; KRAS G12D FRET data, IC50) | IC50 (KRAS G12S; KRAS G12S FRET data, IC50) | IC50 (KRAS G12V; [9]) | IC50 (KRAS G13C; KRAS G13C FRET data, IC50) | IC50 (KRAS G13D; [10]) | IC50 (KRAS WT; [11]) | IC50 (NRAS G12C; [12])
1 | CCn1c(-c2cnccc2COC)c2c3cc(ccc31)-c1cc(O)cc(c1)C[C@H](NC(=O)[C@H](C(C)C)N(C)C(=O)N1CC(OC)C1)C(=O)N1CCC[C@H](N1)C(=O)OCC(C)(C)C2 [Example A30] | 100 to 1000 nM | 100 to 1000 nM | 100 to 1000 nM | 1000 to 10000 nM | 100 to 1000 nM | 100 to 1000 nM | 100 to 1000 nM | 1000 to 10000 nM | 100 to 1000 nM | 100 to 1000 nM | – | – | – | – | – | – | – | –
2 | CCn1c(-c2cccnc2[C@H](C)OC)c2c3cc(ccc31)-c1cc(O)cc(c1)C[C@H](NC(=O)C(C1CC1)C1CC1)C(=O)N1CCC[C@H](N1)C(=O)OCC(C)(C)C2 [Example A184] | 1000 to 10000 nM | 100 to 1000 nM | 100 to 1000 nM | 1000 to 10000 nM | 100 to 1000 nM | 100 to 1000 nM | 10 to 100 nM | 100 to 1000 nM | 100 to 1000 nM | 100 to 1000 nM | – | – | – | – | – | – | – | –
3 | CCn1c(-c2cccnc2[C@H](C)OC)c2c3cc(ccc31)-c1cc(O)cc(c1)C[C@H](NC(=O)[C@H](C(C)C)N(C)C(=O)[C@H]1CCCNC1)C(=O)N1CCC[C@H](N1)C(=O)OCC(C)(C)C2 [Example A243] | > 10000 nM | 100 to 1000 nM | 10 to 100 nM | 10 to 100 nM | 10 to 100 nM | 100 to 1000 nM | 10 to 100 nM | 10 to 100 nM | 10 to 100 nM | 10 to 100 nM | – | – | – | – | – | – | – | –
4 | CCn1c(-c2cccnc2[C@H](C)OC)c2c3cc(ccc31)-c1cc(O)cc(c1)C[C@H](NC(=O)[C@H](C(C)C)N(C)C(=O)[C@H]1CCN(C(=O)OC(C)(C)C)C1)C(=O)N1CCC[C@H](N1)C(=O)OCC(C)(C)C2 [Example A233] | 10 to 100 nM | 10 to 100 nM | 10 to 100 nM | 100 to 1000 nM | 100 to 1000 nM | 10 to 100 nM | 10 to 100 nM | 100 to 1000 nM | 100 to 1000 nM | 10 to 100 nM | – | – | – | – | – | – | – | –
5 | CCn1c(-c2cccnc2[C@H](C)OC)c2c3cc(ccc31)-c1cc(O)cc(c1)C[C@H](NC(=O)[C@H](C(C)C)N(C)C(=O)[C@@H]1CC1(F)F)C(=O)N1CCC[C@H](N1)C(=O)OCC(C)(C)C2 [Example A167] | 100 to 1000 nM | 100 to 1000 nM | – | – | – | – | – | – | – | – | 100 to 1000 nM | 100 to 1000 nM | 100 to 1000 nM | 100 to 1000 nM | 100 to 1000 nM | 100 to 1000 nM | 100 to 1000 nM | 100 to 1000 nM
6 | CCn1c(-c2cccnc2[C@H](C)OC)c2c3cc(ccc31)-c1csc(n1)C[C@H](NC(=O)[C@H](C(C)C)N(C)C(=O)N1CC(N3CCN(C)CC3)C1)C(=O)N1CCC[C@H](N1)C(=O)OCC(C)(C)C2 [Example A288] | 10 to 100 nM | 10 to 100 nM | 10 to 100 nM | 100 to 1000 nM | 100 to 1000 nM | 100 to 1000 nM | 100 to 1000 nM | 100 to 1000 nM | 100 to 1000 nM | 10 to 100 nM | – | – | – | – | – | – | – | –
7 | CCn1c(-c2cnccc2COC)c2c3cc(ccc31)-c1cc(O)cc(c1)C[C@H](NC(=O)[C@H](C(C)C)N(C)C(=O)O[C@H]1CCOC1)C(=O)N1CCC[C@H](N1)C(=O)OCC(C)(C)C2 [Example A260] | 1000 to 10000 nM | 100 to 1000 nM | 100 to 1000 nM | 1000 to 10000 nM | 100 to 1000 nM | 1000 to 10000 nM | 1000 to 10000 nM | 1000 to 10000 nM | 100 to 1000 nM | 100 to 1000 nM | – | – | – | – | – | – | – | –
8 | CCn1c(-c2cnccc2COC)c2c3cc(ccc31)-c1cc(O)cc(c1)C[C@H](NC(=O)[C@H](C(C)C)N(C)C(=O)C1CCN(C)CC1)C(=O)N1CCC[C@H](N1)C(=O)OCC(C)(C)C2 [Example A84] | > 10000 nM | > 10000 nM | – | – | – | – | – | – | – | – | 100 to 1000 nM | 1000 to 10000 nM | 100 to 1000 nM | 1000 to 10000 nM | 100 to 1000 nM | 100 to 1000 nM | 100 to 1000 nM | 1000 to 10000 nM
9 | CCn1c(-c2cnccc2COC)c2c3cc(ccc31)-c1cc(O)cc(c1)C[C@H](NC(=O)[C@H](C(C)C)N(C)C(=O)[C@@H]1CCCO1)C(=O)N1CCC[C@H](N1)C(=O)OCC(C)(C)C2 [Example A91] | 100 to 1000 nM | 100 to 1000 nM | 100 to 1000 nM | 1000 to 10000 nM | 100 to 1000 nM | 100 to 1000 nM | 100 to 1000 nM | 1000 to 10000 nM | 100 to 1000 nM | 100 to 1000 nM | – | – | – | – | – | – | – | –
10 | CCn1c(-c2cccnc2[C@H](C)OC)c2c3cc(ccc31)-c1csc(n1)C[C@H](NC(=O)[C@H](C(C)C)N(C)C(=O)N(C)C(C)C)C(=O)N1CCC[C@H](N1)C(=O)OCC(C)(C)C2 [Example A350] | 100 to 1000 nM | 10 to 100 nM | 10 to 100 nM | 100 to 1000 nM | 100 to 1000 nM | 100 to 1000 nM | 100 to 1000 nM | 100 to 1000 nM | 100 to 1000 nM | 10 to 100 nM | – | – | – | – | – | – | – | –
11 | CCn1c(-c2cccnc2[C@H](C)OC)c2c3cc(ccc31)-c1csc(n1)C[C@H](NC(=O)[C@@H](OC(=O)N1CC(N(C)C)C1)C(C)C)C(=O)N1CCC[C@H](N1)C(=O)OCC(C)(C)C2 [Example A339] | 1000 to 10000 nM | 100 to 1000 nM | 100 to 1000 nM | 1000 to 10000 nM | 1000 to 10000 nM | 1000 to 10000 nM | 1000 to 10000 nM | 1000 to 10000 nM | 100 to 1000 nM | 100 to 1000 nM | – | – | – | – | – | – | – | –
12 | CCn1c(-c2cccnc2[C@H](C)OC)c2c3cc(ccc31)-c1cc(O)cc(c1)C[C@H](NC(=O)[C@H](C(C)C)N(C)C(=O)C1(CO)CC1)C(=O)N1CCC[C@H](N1)C(=O)OCC(C)(C)C2 [Example A232] | 100 to 1000 nM | 100 to 1000 nM | 100 to 1000 nM | 100 to 1000 nM | 100 to 1000 nM | 100 to 1000 nM | 100 to 1000 nM | 100 to 1000 nM | 100 to 1000 nM | 100 to 1000 nM | – | – | – | – | – | – | – | –
